{
  "source": "patent US4076819A",
  "about": "“Thieno-pyridine derivatives and therapeutic composition containing same” (priority 1975, dated 1978)",
  "key": {"[1]": {"test_system": "blood plate aggregation", "experiment": "Inhibiting activity on blood plate aggregation (adenosine diphosphate-induced, turbidimetric assay on plasma of treated rats)", "assay_type": "in vivo", "conditions": "Rattus norvegicus, rats administered 100 mg/kg, read-out: percent inhibition on blood plate aggregation", "description": "2. Inhibiting activity on blood plate aggregation\nRat plasma, prepared to contain 600,000±20,000 blood platelets per mm^3 is normally cloudy. Addition of adenosine diphosphate induces blood plate aggregation and, thus, an increase of the light transmission, a phenomenon readily measurable with a spectrophotometer. When the same test is effected with a plasma prepared from the blood of an animal which has been administered 100 mg/kg of a derivative having an inhibiting effect on blood plate aggregation, there is no aggregation of the blood plates and the serum remains cloudy. The turbidimetric assay effected with a spectrophotometer provides a measure of the inhibiting activity on blood plate aggregation of the test derivatives."}, "[2]": {"test_system": "carrageenin-induced edema", "experiment": "Localized carrageenin-induced edema method (anti-inflammatory action)", "assay_type": "in vivo", "conditions": "rats, oral 100 mg/kg given 1 h before, simultaneously with, and 1 h and 2.5 h after carrageenin", "description": "(a) Localized carrageenin-induced edema method\nA 1% carrageenin solution (1 ml) is injected in the metatarsal flexor muscles of the right hind limb of rats at time 0. The animals of the treated group are additionally administered orally 100 mg/kg of the test derivative, respectively 1 hour prior to and then simultaneously with the phlogogenic agent, and then one hour and 2.5 hours thereafter. The percent anti-inflammatory activity, as a function of time, is determined by measurements effected with a ROCH micrometer at times 0, 1 hour, 2 hours, 3 hours and 5 hours after carrageenin administration."}, "[3]": {"test_system": "ovalbumin-induced systemic edema", "experiment": "Ovalbumin-induced systemic edema method (anti-inflammatory action)", "assay_type": "in vivo", "conditions": "rats, oral 100 mg/kg given 1 h before and simultaneously with ovalbumin", "description": "(b) Ovalbumin-induced systemic edema method\nRats are administered a simultaneous intraperitoneal injection of 1 ml ovalbumin and 0.5 ml of a 1% aqueous Evans Blue solution. The animals of the treated group are additionally administered orally 100 mg/kg of the test derivative, one hour prior to ovalbumin administration and simultaneously with said ovalbumin administration. The intensity of the phenomenon thus induced is scored according to a scale from 1 to 5, according to the progress of the inflammatory syndrome. The determinations are effected after 2 hours and after 3 hours. Thus are determined the mean intensity of the edema and the percent decrease of the edema reaction."}, "[4]": {"experiment": "in vivo", "conditions": "mouse, mice, intravenous route, calculated by method of Miller and Tainter, read-out: LD50 /24 hrs/kg body weight"}},
  "data": [
    {"smiles": "O=[N+]([O-])c1ccccc1CN1Cc2sccc2C(O)C1", "note": "(centres unmarked) [Derivative 22]", "values": [
      {"measurement": "inhibition at 100 mg/kg", "setting": "[1]", "result": 93, "unit": "%"}
    ]},
    {"smiles": "COc1cc(C(=O)N2Cc3sccc3C(O)C2)cc(OC)c1OC", "note": "(centres unmarked) [Derivative 26]", "values": [
      {"measurement": "Percent anti-inflammatory activity after 1 hour", "setting": "[2]", "result": 36, "unit": "%"},
      {"measurement": "Percent anti-inflammatory activity after 2 hours", "setting": "[2]", "result": 49, "unit": "%"},
      {"measurement": "Percent anti-inflammatory activity after 5 hours", "setting": "[2]", "result": 54, "unit": "%"},
      {"measurement": "Percent decrease (of the edema reaction) After 2 hours", "setting": "[3]", "result": 51, "unit": "%"},
      {"measurement": "Percent decrease (of the edema reaction) After 3 hours", "setting": "[3]", "result": 63, "unit": "%"}
    ]},
    {"smiles": "CC(=O)OC1CN(C)Cc2sccc21", "note": "(centres unmarked) [Derivative 12]", "values": [
      {"measurement": "LD50 at 24 h", "setting": "[4]", "result": 260, "unit": "mg/kg"},
      {"measurement": "Percent anti-inflammatory activity after 1 hour", "setting": "[2]", "result": 37, "unit": "%"},
      {"measurement": "Percent anti-inflammatory activity after 2 hours", "setting": "[2]", "result": 50, "unit": "%"},
      {"measurement": "Percent anti-inflammatory activity after 5 hours", "setting": "[2]", "result": 58, "unit": "%"},
      {"measurement": "Percent decrease (of the edema reaction) After 2 hours", "setting": "[3]", "result": 46, "unit": "%"},
      {"measurement": "Percent decrease (of the edema reaction) After 3 hours", "setting": "[3]", "result": 59, "unit": "%"}
    ]},
    {"smiles": "COc1ccc(CN2Cc3sccc3C(OC(C)=O)C2)cc1", "note": "(centres unmarked) [Derivative 21]", "values": [
      {"measurement": "LD50 at 24 h", "setting": "[4]", "result": 245, "unit": "mg/kg"}
    ]},
    {"smiles": "CCCNC(=O)OC1CN(C)Cc2sccc21", "note": "(centres unmarked) [Derivative 9, 6-Methyl-4-N-propylcarbamoyloxy-4,5,6,7-tetrahydro-thieno-[2,3-c]-pyridine]", "values": [
      {"measurement": "LD50 at 24 h", "setting": "[4]", "result": 220, "unit": "mg/kg"},
      {"measurement": "inhibition at 100 mg/kg", "setting": "[1]", "result": 86, "unit": "%"}
    ]},
    {"smiles": "O=[N+]([O-])c1ccc(CN2Cc3ccsc3C(O)C2)cc1", "note": "(centres unmarked) [Derivative 1, 7-Hydroxy-5-p.nitrobenzyl-4,5,6,7-tetrahydro-thieno[3,2-c]-pyridine]", "values": [
      {"measurement": "LD50 at 24 h", "setting": "[4]", "result": 90, "unit": "mg/kg"}
    ]},
    {"smiles": "O=C(Nc1ccccc1)N1Cc2sccc2C(O)C1", "note": "(centres unmarked) [Derivative 5, 4-Hydroxy-6-N-phenylcarbamoyl-4,5,6,7-tetrahydro-thieno[2,3-c]-pyridine]", "values": [
      {"measurement": "Percent anti-inflammatory activity after 1 hour", "setting": "[2]", "result": 41, "unit": "%"},
      {"measurement": "Percent anti-inflammatory activity after 2 hours", "setting": "[2]", "result": 50, "unit": "%"},
      {"measurement": "Percent anti-inflammatory activity after 5 hours", "setting": "[2]", "result": 55, "unit": "%"},
      {"measurement": "Percent decrease (of the edema reaction) After 2 hours", "setting": "[3]", "result": 33, "unit": "%"},
      {"measurement": "Percent decrease (of the edema reaction) After 3 hours", "setting": "[3]", "result": 43, "unit": "%"},
      {"measurement": "inhibition at 100 mg/kg", "setting": "[1]", "result": 89, "unit": "%"}
    ]},
    {"smiles": "CNC(=O)OC1CN(C)Cc2sccc21", "note": "(centres unmarked) [Derivative 14]", "values": [
      {"measurement": "LD50 at 24 h", "setting": "[4]", "result": 280, "unit": "mg/kg"}
    ]},
    {"smiles": "CC(=O)CCN1Cc2sccc2C(O)C1", "note": "(centres unmarked) [Derivative 16]", "values": [
      {"measurement": "LD50 at 24 h", "setting": "[4]", "result": 250, "unit": "mg/kg"}
    ]},
    {"smiles": "CC(=O)OC1CN(C(=O)C(Cl)Cl)Cc2sccc21", "note": "(centres unmarked) [Derivative 25]", "values": [
      {"measurement": "inhibition at 100 mg/kg", "setting": "[1]", "result": 84, "unit": "%"}
    ]},
    {"smiles": "O=C(CN1CCCC1)N1Cc2sccc2C(O)C1", "note": "(centres unmarked) [Derivative 2, 4-Hydroxy-6-pyrrolidinoacetyl-4,5,6,7-tetrahydro-thieno[2,3-c]-pyridine]", "values": [
      {"measurement": "LD50 at 24 h", "setting": "[4]", "result": 225, "unit": "mg/kg"},
      {"measurement": "Percent anti-inflammatory activity after 1 hour", "setting": "[2]", "result": 35, "unit": "%"},
      {"measurement": "Percent anti-inflammatory activity after 2 hours", "setting": "[2]", "result": 48, "unit": "%"},
      {"measurement": "Percent anti-inflammatory activity after 5 hours", "setting": "[2]", "result": 55, "unit": "%"},
      {"measurement": "Percent decrease (of the edema reaction) After 2 hours", "setting": "[3]", "result": 38, "unit": "%"},
      {"measurement": "Percent decrease (of the edema reaction) After 3 hours", "setting": "[3]", "result": 44, "unit": "%"}
    ]},
    {"smiles": "OC1CN(Cc2ccc(Cl)cc2)Cc2sccc21", "note": "(centres unmarked) [Derivative 20]", "values": [
      {"measurement": "LD50 at 24 h", "setting": "[4]", "result": 110, "unit": "mg/kg"}
    ]},
    {"smiles": "CN1Cc2sccc2C(O)C1", "note": "(centres unmarked) [Derivative 10]", "values": [
      {"measurement": "LD50 at 24 h", "setting": "[4]", "result": 340, "unit": "mg/kg"}
    ]},
    {"smiles": "CC(=O)OC1CN(Cc2ccccc2Cl)Cc2sccc21", "note": "(centres unmarked) [Derivative 18]", "values": [
      {"measurement": "Percent anti-inflammatory activity after 1 hour", "setting": "[2]", "result": 34, "unit": "%"},
      {"measurement": "Percent anti-inflammatory activity after 2 hours", "setting": "[2]", "result": 44, "unit": "%"},
      {"measurement": "Percent anti-inflammatory activity after 5 hours", "setting": "[2]", "result": 57, "unit": "%"},
      {"measurement": "Percent decrease (of the edema reaction) After 2 hours", "setting": "[3]", "result": 42, "unit": "%"},
      {"measurement": "Percent decrease (of the edema reaction) After 3 hours", "setting": "[3]", "result": 58, "unit": "%"},
      {"measurement": "inhibition at 100 mg/kg", "setting": "[1]", "result": 74, "unit": "%"}
    ]},
    {"smiles": "CN1Cc2ccsc2C(O)C1", "note": "(centres unmarked) [Derivative 29]", "values": [
      {"measurement": "LD50 at 24 h", "setting": "[4]", "result": 350, "unit": "mg/kg"},
      {"measurement": "Percent anti-inflammatory activity after 1 hour", "setting": "[2]", "result": 45, "unit": "%"},
      {"measurement": "Percent anti-inflammatory activity after 2 hours", "setting": "[2]", "result": 55, "unit": "%"},
      {"measurement": "Percent anti-inflammatory activity after 5 hours", "setting": "[2]", "result": 61, "unit": "%"},
      {"measurement": "Percent decrease (of the edema reaction) After 2 hours", "setting": "[3]", "result": 49, "unit": "%"},
      {"measurement": "Percent decrease (of the edema reaction) After 3 hours", "setting": "[3]", "result": 59, "unit": "%"},
      {"measurement": "inhibition at 100 mg/kg", "setting": "[1]", "result": 88, "unit": "%"}
    ]},
    {"smiles": "O=[N+]([O-])c1ccc(CN2Cc3sccc3C(O)C2)cc1", "note": "(centres unmarked) [Derivative 24]", "values": [
      {"measurement": "LD50 at 24 h", "setting": "[4]", "result": 150, "unit": "mg/kg"}
    ]},
    {"smiles": "CC(=O)CCN1Cc2ccsc2C(O)C1", "note": "(centres unmarked) [Derivative 7, 7-Hydroxy-5-(3-oxo-butyl)-4,5,6,7-tetrahydro-thieno[3,2-c]-pyridine]", "values": [
      {"measurement": "LD50 at 24 h", "setting": "[4]", "result": 260, "unit": "mg/kg"},
      {"measurement": "Percent anti-inflammatory activity after 1 hour", "setting": "[2]", "result": 42, "unit": "%"},
      {"measurement": "Percent anti-inflammatory activity after 2 hours", "setting": "[2]", "result": 56, "unit": "%"},
      {"measurement": "Percent anti-inflammatory activity after 5 hours", "setting": "[2]", "result": 60, "unit": "%"},
      {"measurement": "Percent decrease (of the edema reaction) After 2 hours", "setting": "[3]", "result": 41, "unit": "%"},
      {"measurement": "Percent decrease (of the edema reaction) After 3 hours", "setting": "[3]", "result": 52, "unit": "%"}
    ]},
    {"smiles": "CC1c2sccc2C(O)CN1C", "note": "(centres unmarked) [Derivative 11]", "values": [
      {"measurement": "LD50 at 24 h", "setting": "[4]", "result": 220, "unit": "mg/kg"}
    ]},
    {"smiles": "CC(=O)OC1CN(Cc2ccccc2Cl)Cc2ccsc21", "note": "(centres unmarked) [Derivative 8, 7-Acetoxy-5-o-chlorobenzyl-4,5,6,7-tetrahydro-thieno[3,2-c]-pyridine]", "values": [
      {"measurement": "LD50 at 24 h", "setting": "[4]", "result": 200, "unit": "mg/kg"}
    ]},
    {"smiles": "Cc1ccc(S(=O)(=O)N2Cc3sccc3C(O)C2)cc1", "note": "(centres unmarked) [Derivative 4, 4-Hydroxy-6-p.toluenesulfonyl-4,5,6,7-tetrahydro-thieno[2,3-c]-pyridine]", "values": [
      {"measurement": "inhibition at 100 mg/kg", "setting": "[1]", "result": 92, "unit": "%"}
    ]}
  ]
}
